Here are results for one compound from patent publication US8653026B2, “Treatment of type 2 diabetes with FTY720” (Diapin Therapeutics LLC, priority 2011, dated 2014).

The conditions of series [1]: patients with relapsing multiple sclerosis; cited from earlier work.
The test system of a further series is S1P1. The series can be described thus: S1P receptor expression in islets from db/db mice: S1P1. The class given is in vivo, mouse. The note with it: after FTY720 treatment of db/db mice. The source says: FIG. 15. Expression of 4 FTY720-bound S1P receptors in the islets isolated from the db/db mice.
FTY720 is phosphorylated in vivo to form FTY720-P that binds S1P1, S1P3, S1P4, and S1P5 but not S1P2 (25). We determined the expression of these receptors in the islets isolated from the untreated and FTY720-treated db/db mice.

Series [2] in a line: Body weight of db/db mice with or without oral FTY720. The note with it: FTY720-treated vs untreated group. The class given is in vivo, mouse. The protocol: FIG. 2B. Time course of the body weight of db/db mice with or without oral FTY720. Open circle (∘), FTY720-untreated group; solid circle (●), pre-diabetic db/db mice (Fasting glucose<126 mg/dL) at six-week-old treated with 10 mg/kg FTY720. […]
Animals and Procedures—Five-week-old female db/db mice (BKS.Cg-m+/−Leprdb) were purchased from Jackson Laboratories (Bar Harbor, Me.). […] After 1 week, the fasting glucose levels of the 6-week-old mice were measured. […] Mice in the FTY720-treated group were fed 10 mg/kg of FTY720 daily by feeding tube and their food intake and body weight were measured twice a week. Fasting glucose levels were measured at the end of each week. […] After metabolic analysis, the pancreases were removed from the mice at 13 and 16 weeks of age for immunohistochemical analysis, quantitation of islet area, or islet isolation.

Series [3] deals with isolated pancreatic islets. The series is described as follows: Glucose-stimulated insulin secretion by isolated normal islets ex vivo. The class given is cell-based, mouse. The note with it: islets from 8 weeks old normal C57/BL6 mice, 0.2 μM FTY720, 24 hours. Here is the method:
Islets were isolated from 8 weeks old normal C57/BL6 mice and treated with or without 0.2 μM FTY720 in the culture medium without FBA for 24 hours. Then the islets were stimulated with glucose and secreted insulin was measured using an Ultra Sensitive Mouse Insulin ELISA Kit (Crystal Chem Inc., Downers Grove, Ill.) and total proteins of islets were measured.

The test system of series [4] is db/db mice. The series is described as follows: Insulin tolerance test. The class given is in vivo, mouse. The protocol: FIG. 5B. Insulin tolerance test (ITT). db/db mice with or without FTY720 treatment were fasted for 6 hours, and injected intraperitoneally with human regular insulin (0.55 U/kg) (Sigma), […] Open circle (∘), FTY720-untreated group; solid circle (●), FTY720-treated group. *p<0.05.
For the glucose tolerance test, the mice were fasted for 16 h and intraperitoneally injected with 10% glucose (1 mg/g of body weight). Glucose levels were then measured after 0, 30, 60, 90, and 120 min by a Glucometer Elite (Bayer Corp., Elkhart, Ind.) (29). For the insulin tolerance test, the mice were fasted for 6 h and injected intraperitoneally with human regular insulin (0.55 units/kg) (Sigma). […]

The subject of series [5] is db/db mice. The series can be described thus: Weekly fasting blood glucose in db/db mice given oral FTY720. It is filed as in vivo, mouse. The protocol:
FIG. 2A. Time course of the fasting glucose levels of db/db mice with or without oral FTY720. Open circle (∘), FTY720-untreated group; solid circle (●), pre-diabetic db/db mice (Fasting glucose<126 mg/dL) at six-week-old treated with 10 mg/kg FTY720; and triangle (▴), diabetic db/db mice (Fasting glucose≅430 mg/dL) at nine-week-old treated with 10 mg/kg FTY720 (n=4). I, Fasting glucose of mice at the age of 6 weeks to 12 weeks at the daily dosage of 10 mg/kg FTY720 (n=20 for the control and FTY720 treated pre-diabetic mice, respectively); II, fasting glucose levels of mice at the age of 12 weeks to 20 weeks at the daily dosage of 10 mg/kg FTY720 (n=6 for the control and FTY720 treated mice, respectively); III, fasting glucose levels of mice at the age of 20 weeks to 29 weeks at the […] dosage of 10 mg/kg FTY720 (n=2 for control and FTY720 treated mice, respectively); IV, fasting glucose levels from the mouse without FTY720 treatment after age of 29 weeks (n=2 for control and FTY720 treated mice, respectively).
Animals and Procedures—Five-week-old female db/db mice (BKS.Cg-m+/−Leprdb) were purchased from Jackson Laboratories (Bar Harbor, Me.). Mice were housed under controlled light (12 h light/12 h dark) and temperature conditions, and had free access to food (normal rodent chow) and water. All procedures were conducted in accordance with the guidelines on Animal Care and were approved by the Institutional Animal Care and Use Committee (IACUC) of Mount Sinai School of Medicine. After 1 week, the fasting glucose levels of the 6-week-old mice were measured. Mice with normal glucose levels (<126 mg/dl) were randomly divided into control and FTY720 treatment groups. Mice in the FTY720-treated group were fed 10 mg/kg of FTY720 daily by feeding tube and their food intake and body weight were measured twice a week. Fasting glucose levels were measured at the end of each week. At 12 weeks of age (when the mice had been treated for 6 weeks), all mice were subjected to metabolic analysis. After metabolic analysis, the pancreases were removed from the mice at 13 and 16 weeks of age for immunohistochemical analysis, quantitation of islet area, or islet isolation.
To rigorously determine the effects of FTY720 in vivo, pre-diabetic (age of six weeks, fasting glucose<126 mg/dL) and diabetic (age of 8-9 weeks, fasting glucose=430 mg/dL) female db/db mice were fed daily with FTY720 (+FTY720) for 29 weeks, and monitored by weekly fasting blood glucose measurements.

In a further series the test system is PDX-1. The series can be described thus: PDX-1 expression in isolated islets from db/db mice. The note with it: islets from FTY720-treated db/db mice. It is filed as in vivo, mouse. The protocol:
FIG. 14. PDX-1 expression in the isolated islets from the db/db mice with (+FTY720) or without FTY720 (−FTY720) treatment (*p=0.0006).
Islets were isolated from pancreases removed from the 13-week-old untreated and FTY720-treated db/db mice by Liberase (Roche Diagnostics) digestion, followed by discontinuous Ficoll gradient separation and manual stereomicroscopic selection to exclude contaminating tissues (30). Isolated islets (or INS-1 cells) were cultured in the medium (composed of RPMI 1640 medium supplemented with 10% fetal bovine serum, 2 mM L-glutamine, 1% sodium pyruvate, 50 μM β-mercaptoethanol, 100 units/ml of penicillin, and 100 μg/ml of streptomycin). For treatment of INS-1 cells, the cells were plated in RPMI medium overnight and changed to Hanks' balanced salt solution containing 2 mM glucose and 0.5% FBS overnight. Then the cells were treated with various conditions in the same medium for 24 hours.
Expression of pancreatic and duodenal homeobox 1 (PDX-1), a transcription factor, is required for pancreatic development and β-cell maturation.

Turning to `CCCCCCCCc1ccc(CCC(N)(CO)CO)cc1` [FTY720, 2-amino-2-[2-(4-octylphenyl)ethyl]propane-1,3-diol], the “cancer formation in phase III clinical trials” value in series [1] is recorded as “without reported cancer formation”. Besides, the “S1P1 expression in islets” value with S1P1 was “significantly elevated”. Besides, the weight gain entry in series [2] was “significantly higher”. Further, the glucose-stimulated insulin secretion entry in series [3] was “does not affect”. The “glucose levels in treated vs untreated groups after insulin administration” value in the series on db/db mice [4] (after 70 min in insulin tolerance test) was “similar”. Further, in the series with db/db mice [4] (db/db mice fasted 6 h, i.p. human regular insulin 0.55 U/kg), the insulin sensitivity result is given as “not affected”. Also, the “distribution of fasting glucose levels” value in the series on db/db mice [5] (all FTY720-treated db/db mice, after 6 weeks treatment) is reported as “normalized”. The “fasting glucose levels after FTY720 administration was ceased” value in the series with db/db mice [5] (db/db mice, administration ceased completely after 29-weeks treatment) was “well controlled”. Moreover, the fasting glucose levels result is given as “became normal” with db/db mice [5] (diabetic db/db mice (glucose ≧350 mg/dL), after six weeks of oral FTY720 10 mg/kg) and roughly 126 mg/dL in the series on db/db mice [5] (pre-diabetic db/db mice (six weeks old, fasting glucose <126 mg/dL), 10 mg/kg FTY720 oral daily, untreated about 500 mg/dL by age 12 weeks). Further, the “fasting glucose levels (screen)” value with db/db mice [5] (i.p. injected into or orally administrated to db/db mice) was “capable of normalizing”. Moreover, the “PDX-1 expression relative to islets from untreated mice” value in the series with PDX-1 is reported as 6 fold.
